pIC50: −log10 of the molar value.

For one data set, the target named is Human FXIa (Homo sapiens (Human), UniProt P03951). As to the kind of experiment: Determination of the % inhibition / IC50 for FXIa. The following applies: for pIC50: 25° C., substrate Z-Gly-Pro-Arg-AFC. Format: biochemical. The procedure: FXIa inhibitory activity in vitro was determined using standard published methods (see e.g. Johansen et al., Int. J. Tiss. Reac. 1986, 8, 185; Shori et al., Biochem. Pharmacol., 1992, 43, 1209; Sturzebecher et al., Biol. Chem. Hoppe-Seyler, 1992, 373, 1025). […]
Sequence of Human FXIa (P03951 388-625): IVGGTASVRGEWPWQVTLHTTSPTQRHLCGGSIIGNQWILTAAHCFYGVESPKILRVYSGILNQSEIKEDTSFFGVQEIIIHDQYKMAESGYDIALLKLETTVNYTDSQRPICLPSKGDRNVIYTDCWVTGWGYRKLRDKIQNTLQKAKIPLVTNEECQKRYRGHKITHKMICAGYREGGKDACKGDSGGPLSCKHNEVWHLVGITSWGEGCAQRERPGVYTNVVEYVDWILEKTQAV
Sequence of Human FXIa (P03951 19-387): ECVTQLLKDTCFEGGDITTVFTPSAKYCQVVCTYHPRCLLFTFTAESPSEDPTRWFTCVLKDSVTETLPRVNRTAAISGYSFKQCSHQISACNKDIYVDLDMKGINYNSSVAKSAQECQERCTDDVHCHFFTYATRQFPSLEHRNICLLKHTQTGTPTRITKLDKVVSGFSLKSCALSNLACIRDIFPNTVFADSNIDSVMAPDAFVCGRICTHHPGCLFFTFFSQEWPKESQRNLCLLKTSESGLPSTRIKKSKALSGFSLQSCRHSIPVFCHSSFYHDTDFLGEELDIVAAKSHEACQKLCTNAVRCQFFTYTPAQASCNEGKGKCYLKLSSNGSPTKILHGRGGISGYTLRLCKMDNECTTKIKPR

Data set [1] in a line: In vitro permeability, Caco-2 model for oral absorption. Format: in vitro ADME. The following applies: human, apical to basolateral, 50 μM test compound, 37° C. Here is the method: In vitro permeability was determined using the Caco-2 model for oral absorption. The methodology was adapted from standard published methods (Wang Z, Hop C. E., Leung K. H. and Pang J. (2000) J Mass Spectrom 35(1); 71-76). The Caco-2 monolayers were established in a Biocoat™ HTS fibrillar collagen 24 well multiwell insert system (1.0 μm, PET membrane, Corning 354803) in which 200,000 cells were seeded into each insert and maintained over 3 days before being utilised in the permeability assay. For the assay, 50 μM test compound is added to the apical side of the inserts and incubated for 1 hour at 37° C. on a shaking platform (120 rpm). Apical to basolateral transport was determined by measuring the test article in both compartments by LCMS following the 1 hour incubation. The integrity of the Caco-2 monolayers was confirmed by two methods, (i) comparison of pre- and post-experiment transepithelial electrical resistance (TEER) and, (ii) assessment of Lucifer Yellow flux.

In a further data set the target is Human Factor XIIa (Homo sapiens (Human), UniProt P00748). In words: Factor XIIa inhibitory activity in vitro. Format: biochemical. The settings on record: 25° C., substrate H-DPro-Phe-Arg-AFC; read-out: IC50 (human FXIIa). The procedure: Human Factor XIIa (Enzyme Research Laboratories) was incubated at 25° C. with the fluorogenic substrate H-DPro-Phe-Arg-AFC and various concentrations of the test compound. Residual enzyme activity (initial rate of reaction) was determined by measuring the change in […] at 410 nm and the IC50 value for the test compound was determined.
Sequence of Human Factor XIIa (P00748 373-615): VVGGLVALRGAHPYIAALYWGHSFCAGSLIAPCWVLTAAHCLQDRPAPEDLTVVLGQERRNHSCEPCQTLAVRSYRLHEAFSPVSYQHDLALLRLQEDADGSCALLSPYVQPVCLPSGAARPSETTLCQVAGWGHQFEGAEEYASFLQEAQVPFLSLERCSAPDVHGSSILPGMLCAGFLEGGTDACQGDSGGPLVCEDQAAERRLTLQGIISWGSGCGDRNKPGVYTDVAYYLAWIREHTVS

A short description of data set [2]: Intrinsic clearance in human liver microsomes. The class given is in vitro ADME. The settings on record: human liver microsomes 0.5 mg/mL, 5 μM test compound, 37° C.; read-out: Human liver microsome (Clint μL/min/mg protein). The procedure:
(§1) Rat or human liver microsomes (0.5 mg/mL; Corning) were incubated with 5 μM test compound at 37° C. on a shaking platform (150 rpm). Samples were taken at 0, 6, 12, 18, 24 and 60 min and test compound concentrations were determined by LCMS against a calibration curve.

A short description of data set [3]: Intrinsic clearance in rat liver microsomes. The class given is in vitro ADME. The following applies: rat liver microsomes 0.5 mg/mL, 5 μM test compound, 37° C.; read-out: rat liver microsome (Clint μL/min/mg protein). The procedure:
as §1

The target in the next data set is Human plasma kallikrein (Homo sapiens (Human), UniProt P03952). As to the kind of experiment: Determination of the IC50 for plasma kallikrein. The class given is biochemical. The following applies: 25° C., substrate H-DPro-Phe-Arg-AFC; read-out: IC50 (human PKal). Here is the method:
Human plasma kallikrein (Protogen) was incubated at 25° C. with the fluorogenic substrate H-DPro-Phe-Arg-AFC and various concentrations of the test compound. Residual enzyme activity (initial rate of reaction) was determined by measuring the change in […] at 410 nm and the IC50 value for the test compound was determined.

For another data set, the target named is Human KLK1 (Homo sapiens (Human), UniProt P06870). In words: Determination of the IC50 for KLK1. Format: biochemical. The settings on record: 25° C., substrate H-DVal-Leu-Arg-AFC. Here is the method: Human KLK1 (Callbiochem) was incubated at 25° C. with the fluorogenic substrate H-DVal-Leu-Arg-AFC and various concentrations of the test compound. Residual enzyme activity (initial rate of reaction) was determined by measuring the change in […] at 410 nm and the IC50 value for the test compound was determined.
Sequence of Human KLK1 (P06870 25-262): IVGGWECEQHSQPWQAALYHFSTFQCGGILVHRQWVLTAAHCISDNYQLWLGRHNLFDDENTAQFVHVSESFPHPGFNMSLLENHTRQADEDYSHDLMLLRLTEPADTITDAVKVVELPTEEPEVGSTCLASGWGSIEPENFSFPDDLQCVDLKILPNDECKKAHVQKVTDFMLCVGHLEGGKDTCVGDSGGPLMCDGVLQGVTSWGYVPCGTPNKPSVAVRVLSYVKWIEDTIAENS

Sequence of Human plasma kallikrein (P03952 391-638): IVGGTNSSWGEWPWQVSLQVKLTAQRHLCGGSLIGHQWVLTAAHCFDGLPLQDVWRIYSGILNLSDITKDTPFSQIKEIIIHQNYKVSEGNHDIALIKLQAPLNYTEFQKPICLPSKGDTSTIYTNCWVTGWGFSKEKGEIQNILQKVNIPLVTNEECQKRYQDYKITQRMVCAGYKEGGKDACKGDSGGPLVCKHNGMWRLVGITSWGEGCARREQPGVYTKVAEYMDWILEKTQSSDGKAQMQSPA
Sequence of Human plasma kallikrein (P03952 20-390): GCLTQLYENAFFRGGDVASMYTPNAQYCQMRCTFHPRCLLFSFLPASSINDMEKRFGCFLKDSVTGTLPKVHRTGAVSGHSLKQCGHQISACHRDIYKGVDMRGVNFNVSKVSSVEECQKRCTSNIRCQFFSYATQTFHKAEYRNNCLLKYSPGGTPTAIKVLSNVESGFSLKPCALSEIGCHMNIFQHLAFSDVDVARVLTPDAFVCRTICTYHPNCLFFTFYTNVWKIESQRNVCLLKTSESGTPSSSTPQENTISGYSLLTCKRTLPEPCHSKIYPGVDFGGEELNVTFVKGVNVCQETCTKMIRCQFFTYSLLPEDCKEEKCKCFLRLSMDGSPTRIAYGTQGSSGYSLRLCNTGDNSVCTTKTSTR

For the compound `COCc1nn(Cc2ccc(Cn3ccccc3=O)cc2)cc1C(=O)NCc1c(C(N)=O)ccc(OC)c1F` [Example 42, N-[(6-carbamoyl-2-fluoro-3-methoxyphenyl)methyl]-3-(methoxymethyl)-1-({4-[(2-oxopyridin-1-yl)methyl]phenyl}methyl)pyrazole-4-carboxamide], the negative-log IC50 (pIC50) against Human FXIa is below 4.40; at Human Factor XIIa, below 5.40; on Human plasma kallikrein, 8.44; on Human KLK1, below 5.40. This compound also returned a Papp at 1 h, 50 μM in data set [1] of 4 ×10⁻⁶ cm/s. The microsomal CLint at 5 μM in data set [2] was found to be 8 µL/min/mg; in data set [3] it was 11 µL/min/mg.

On to `COCc1nn(Cc2ccc(Cn3cccn3)cc2)cc1C(=O)NCc1cccc(Cl)c1` [Reference Example I, reference compound], for which the pIC50 against Human FXIa was below 4.40; at Human Factor XIIa, below 4.40; on Human plasma kallikrein, 5.70; against Human KLK1 it was below 4.40. This compound also showed an apparent permeability coefficient (Papp) at 1 h, 50 μM in data set [1] of 15 ×10⁻⁶ cm/s. Also, the microsomal CLint at 5 μM in data set [2] amounted to 77 µL/min/mg; in data set [3] it was 153 µL/min/mg.

In the case of `COCc1nn(Cc2cnc(N3CCCC3)nc2)cc1C(=O)NCc1c(C#N)ccc(OC)c1F` [Example 58, N-[(6-cyano-2-fluoro-3-methoxyphenyl)methyl]-3-(methoxymethyl)-1-{[2-(pyrrolidin-1-yl)pyrimidin-5-yl]methyl}pyrazole-4-carboxamide], the pIC50 against Human FXIa was 5.07; on Human Factor XIIa, below 4.40; at Human plasma kallikrein, 7.24; against Human KLK1 it was below 4.40. This compound also registered an apparent permeability coefficient (Papp) at 1 h, 50 μM in data set [1] of 26 ×10⁻⁶ cm/s.

For the compound `COc1ccc(-n2cnnn2)c(CNC(=O)c2cnn(Cc3cnc(N4CCCC4)nc3)c2)c1F` [Reference Example K, reference compound], the pIC50 is 7.12 against Human FXIa, below 4.40 at Human Factor XIIa, 8.70 on Human plasma kallikrein and below 4.40 on Human KLK1. For the same compound, the apparent permeability (Papp) at 1 h, 50 μM in data set [1] was 3 ×10⁻⁶ cm/s.

Consider `COCc1nn(Cc2ccc(Cn3ccccc3=O)cc2)cc1C(=O)NCc1c(Cl)cccc1-n1cnnn1` [Example 73, N-{[2-chloro-6-(1,2,3,4-tetrazol-1-yl)phenyl]methyl}-3-(methoxymethyl)-1-({4-[(2-oxopyridin-1-yl)methyl]phenyl}methyl)pyrazole-4-carboxamide], for which the pIC50 is below 4.40 at Human FXIa, below 5.40 at Human Factor XIIa, 7.64 at Human plasma kallikrein and below 5.40 against Human KLK1. This compound also gave an apparent permeability (Papp) at 1 h, 50 μM in data set [1] of 4 ×10⁻⁶ cm/s.

For the compound `COCc1nn(Cc2ccc(Cn3ccccc3=O)cc2)cc1C(=O)NCc1cc(F)ccc1-n1cnnn1` [Example 49, N-{[5-fluoro-2-(1,2,3,4-tetrazol-1-yl)phenyl]methyl}-3-(methoxymethyl)-1-({4-[(2-oxopyridin-1-yl)methyl]phenyl}methyl)pyrazole-4-carboxamide], the negative-log IC50 (pIC50) against Human FXIa was below 4.40; on Human Factor XIIa it was below 5.40; on Human plasma kallikrein it was 7.80; against Human KLK1 it was below 5.40. Further, the apparent permeability coefficient (Papp) at 1 h, 50 μM in data set [1] amounted to 6 ×10⁻⁶ cm/s. The microsomal CLint at 5 μM in data set [2] came out at 18 µL/min/mg; in data set [3] it was 36 µL/min/mg.

On to `COCc1nn(Cc2ccc(Cn3ccccc3=O)cn2)cc1C(=O)NCc1c(C#N)ccc(OC)c1F` [Example 51, N-[(6-cyano-2-fluoro-3-methoxyphenyl)methyl]-3-(methoxymethyl)-1-({5-[(2-oxopyridin-1-yl)methyl]pyridin-2-yl}methyl)pyrazole-4-carboxamide], for which the pIC50 against Human FXIa was below 4.40; at Human Factor XIIa, below 5.40; at Human plasma kallikrein it was 7.67; against Human KLK1, below 5.40. Besides, in data set [1], the apparent permeability coefficient (Papp) at 1 h, 50 μM turned out to be 3 ×10⁻⁶ cm/s. The microsomal CLint at 5 μM in data set [2] worked out at 30 µL/min/mg; in data set [3], 25 µL/min/mg.

As to `COCc1nn(Cc2ccc(Cn3ccccc3=O)cc2)cc1C(=O)NCc1cc(OC)c(C)cn1` [Example 20, N-[(4-methoxy-5-methylpyridin-2-yl)methyl]-3-(methoxymethyl)-1-({4-[(2-oxopyridin-1-yl)methyl]phenyl}methyl)pyrazole-4-carboxamide], the inhibition at 40 µM at Human FXIa (40 μM test compound, read-out: % Inhibition @ 40 μM (human FXIa)) was determined as 0%. Further, the pIC50 at Human FXIa was below 4.40; at Human Factor XIIa it was below 4.40; on Human plasma kallikrein, 5.49; at Human KLK1, below 4.40.

For the compound `COCc1nn(Cc2ccc(Cn3ccccc3=O)cc2)cc1C(=O)NCc1nccc(C)c1F` [Example 28, N-[(3-fluoro-4-methylpyridin-2-yl)methyl]-3-(methoxymethyl)-1-({4-[(2-oxopyridin-1-yl)methyl]phenyl}methyl)pyrazole-4-carboxamide], the pIC50 against Human FXIa is below 4.40; at Human Factor XIIa, below 4.40; at Human plasma kallikrein, 6.79; against Human KLK1, below 4.40.

Consider `COCc1nn(Cc2ccc(Cn3ccccc3=O)cc2)cc1C(=O)NCc1nc(C)ccc1F` [Example 27, N-[(3-fluoro-6-methylpyridin-2-yl)methyl]-3-(methoxymethyl)-1-({4-[(2-oxopyridin-1-yl)methyl]phenyl}methyl)pyrazole-4-carboxamide], for which the pIC50 on Human FXIa is below 4.40; on Human Factor XIIa, below 4.40; at Human plasma kallikrein it was 6.11; against Human KLK1 it was below 4.40.

On to `COCc1nn(Cc2ccc(CN3CCCCC3=O)cc2)cc1C(=O)NCc1c(C#N)ccc(OC)c1F` [Example 57, N-[(6-cyano-2-fluoro-3-methoxyphenyl)methyl]-3-(methoxymethyl)-1-({4-[(2-oxopiperidin-1-yl)methyl]phenyl}methyl)pyrazole-4-carboxamide], for which the pIC50 on Human FXIa was below 4.40; at Human Factor XIIa it was below 4.40; at Human plasma kallikrein it was 7.55; against Human KLK1, below 4.40.

For `COCc1nn(Cc2ccc(Cn3ccccc3=O)cc2)cc1C(=O)NCc1cc(OC)ccc1C` [Example 41, N-[(5-methoxy-2-methylphenyl)methyl]-3-(methoxymethyl)-1-({4-[(2-oxopyridin-1-yl)methyl]phenyl}methyl)pyrazole-4-carboxamide], the negative-log IC50 (pIC50) was below 4.40 at Human FXIa, below 5.40 at Human Factor XIIa, 6.83 at Human plasma kallikrein and below 5.40 on Human KLK1.

Regarding `COCc1nn(Cc2ccc(Cn3ccccc3=O)cc2)cc1C(=O)NCc1nccc(OC)n1` [Example 10, 3-(methoxymethyl)-N-[(4-methoxypyrimidin-2-yl)methyl]-1-({4-[(2-oxopyridin-1-yl)methyl]phenyl}methyl)pyrazole-4-carboxamide], the pIC50 is below 4.40 at Human FXIa, below 4.40 on Human Factor XIIa, 5.61 on Human plasma kallikrein and below 4.40 against Human KLK1.

In the case of `COCc1nn(Cc2ccc(N3CCC(F)(F)C3)nc2)cc1C(=O)NCc1c(-n2cnnn2)ccc(OC)c1F` [Example 87, 1-{[6-(3,3-difluoropyrrolidin-1-yl)pyridin-3-yl]methyl}-N-{[2-fluoro-3-methoxy-6-(1,2,3,4-tetrazol-1-yl)phenyl]methyl}-3-(methoxymethyl)pyrazole-4-carboxamide], the negative-log IC50 (pIC50) against Human FXIa is 6.79; at Human Factor XIIa, below 4.40; at Human plasma kallikrein it was 9.10; at Human KLK1, below 4.40. The compound further came in with an apparent permeability (Papp) at 1 h, 50 μM in data set [1] of 4 ×10⁻⁶ cm/s.

For `COCc1nn(Cc2ccc(Cn3ccccc3=O)cc2)cc1C(=O)NCc1nccc(C)c1Cl` [Example 29, N-[(3-chloro-4-methylpyridin-2-yl)methyl]-3-(methoxymethyl)-1-({4-[(2-oxopyridin-1-yl)methyl]phenyl}methyl)pyrazole-4-carboxamide], the pIC50 was below 4.40 at Human FXIa, below 4.40 at Human Factor XIIa, 6.66 on Human plasma kallikrein and below 4.40 at Human KLK1.
